We go through 28 compounds from US10508120B2, “TYK2 inhibitors and uses thereof” (Nimbus Lakshmi, Inc., priority 2017, dated 2019).

For experiment [1], the target named is human TYK2 (JH2domain-pseudokinase) (Homo sapiens (Human), UniProt P29597). Briefly: TYK2 JH2 Domain Binding Assay (KINOMEscan). In short, it runs like this: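 Displacement of a DNA-tagged TYK2 JH2 fusion (human, aa G556–D888, HEK293 extract, <0.1 nM) from ligand-coated beads over 1 h at RT; binding buffer PBS/0.05% Tween 20/10 mM DTT/0.1% BSA.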
The next experiment concerns the target Tyk2 kinase domain (DH1) (Homo sapiens (Human), UniProt P29597). Briefly: Tyk2 Radioactive Kinase Assay. The settings on record: compound at 10 μM, ATP 10 μM; for inhibition at 10 µM: read-out: Tyk2 JH1% Inhibition @ 10 μM. In kind it is biochemical. A digest of the protocol:
(§1)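 Single-point screen: 10 μM test compound, radioactive kinase read-out, percent inhibition reported for each kinase domain.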

The target of another experiment is JAK2 kinase domain (JH1) (Homo sapiens (Human), UniProt O60674). Briefly: JAK2 Radioactive Kinase Assay. Format: biochemical. Particulars: compound at 10 μM, ATP 10 μM; for inhibition at 10 µM: read-out: JAK2 JH1% Inhibition @ 10 μM. A digest of the protocol:
as §1

pKd: −log10 of the molar value. A value given as a limit tells only on which side of the number the result lay.

Chain of Tyk2 kinase domain (DH1) (P29597 897-1176): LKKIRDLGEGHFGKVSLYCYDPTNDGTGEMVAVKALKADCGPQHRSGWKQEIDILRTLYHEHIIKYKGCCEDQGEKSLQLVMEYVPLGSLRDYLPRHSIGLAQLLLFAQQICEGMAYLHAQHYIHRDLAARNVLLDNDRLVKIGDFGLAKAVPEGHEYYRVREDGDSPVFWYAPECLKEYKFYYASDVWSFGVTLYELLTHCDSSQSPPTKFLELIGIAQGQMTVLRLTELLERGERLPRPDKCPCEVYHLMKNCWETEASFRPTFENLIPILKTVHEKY
Chain of JAK2 kinase domain (JH1) (O60674 849-1124): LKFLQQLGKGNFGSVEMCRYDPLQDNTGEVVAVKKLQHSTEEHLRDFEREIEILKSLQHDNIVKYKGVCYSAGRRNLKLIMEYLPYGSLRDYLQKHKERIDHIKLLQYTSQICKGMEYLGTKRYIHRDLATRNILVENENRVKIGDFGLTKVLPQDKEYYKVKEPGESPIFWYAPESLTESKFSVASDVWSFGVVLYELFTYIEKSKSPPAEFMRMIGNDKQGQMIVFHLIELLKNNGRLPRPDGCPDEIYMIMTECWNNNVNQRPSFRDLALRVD
Chain of human TYK2 (JH2domain-pseudokinase) (P29597 556-888): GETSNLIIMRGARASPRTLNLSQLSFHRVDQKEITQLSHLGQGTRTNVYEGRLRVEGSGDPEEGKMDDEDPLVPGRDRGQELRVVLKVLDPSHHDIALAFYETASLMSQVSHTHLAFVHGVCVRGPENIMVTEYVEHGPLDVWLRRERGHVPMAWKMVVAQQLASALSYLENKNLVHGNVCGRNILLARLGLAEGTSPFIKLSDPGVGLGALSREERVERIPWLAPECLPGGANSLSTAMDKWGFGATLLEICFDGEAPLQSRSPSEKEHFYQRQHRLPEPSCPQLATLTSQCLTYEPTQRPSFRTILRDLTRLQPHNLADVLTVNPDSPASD

`CNc1cc(-c2cn(CCN3CCOCC3)c3ncccc23)nc2c(C(=O)N[C@@H]3CC[C@@H]3O)cnn12` [I-678]: the pKd (usually −log10 of the Kd, conventionally taken in molar units) in experiment [1] was 9.00 to 9.70. Moreover, the inhibition at 10 µM on Tyk2 kinase domain (DH1) and at JAK2 kinase domain (JH1) was < 50% throughout.

`CNc1cc(Nc2cccc(N3CCCC3=O)n2)nc2c(C(=O)N[C@@H]3CC[C@@H]3O)cnn12` [I-679]: the negative-log Kd (pKd) in experiment [1] was > 9.70. Besides, the inhibition at 10 µM on Tyk2 kinase domain (DH1) and at JAK2 kinase domain (JH1) was < 50% each time.

Turning to `CNc1cc(Nc2cccn(-c3ccccn3)c2=O)nc2c(C(=O)NCC(C)CO)cnn12` (stereo not drawn) [I-682], in experiment [1], the pKd was 9.00 to 9.70. Besides, the inhibition at 10 µM on Tyk2 kinase domain (DH1) and on JAK2 kinase domain (JH1) was < 50% throughout.

Take `CNc1cc(Nc2cccn(-c3ccccn3)c2=O)nc2c(C(=O)NCC(C)(C)CO)cnn12` [I-683, N-(3-hydroxy-2,2-dimethylpropyl)-7-(methylamino)-5-((2-oxo-2H-[1,2′-bipyridin]-3-yl)amino)pyrazolo[1,5-a]pyrimidine-3-carboxamide]: the pKd in experiment [1] was > 9.70. The inhibition at 10 µM on Tyk2 kinase domain (DH1) and on JAK2 kinase domain (JH1) was < 50% throughout.

In experiment [1], `CNc1cc(Nc2cccn(-c3ccccn3)c2=O)nc2c(C(=O)NCC3(CO)CC3)cnn12` [I-684] had a pKd of 9.00 to 9.70. Besides, the inhibition at 10 µM at Tyk2 kinase domain (DH1) and at JAK2 kinase domain (JH1) was < 50% in each case.

As to `CNc1cc(Nc2cccn([C@@H]3CCN(C)C[C@H]3F)c2=O)nc2c(C(=O)NC3CC3)cnn12` [I-686], the pKd in experiment [1] was 9.00 to 9.70. The inhibition at 10 µM at Tyk2 kinase domain (DH1) and at JAK2 kinase domain (JH1) was < 50% each time.

`CNc1cc(Nc2cccn([C@H]3CCN(C)C[C@H]3F)c2=O)nc2c(C(=O)NC3CC3)cnn12` [I-687] had a pKd in experiment [1] of 9.00 to 9.70. The “Tyk2 JH1% Inhibition @ 10 μM” value on Tyk2 kinase domain (DH1) is listed as “A (percent inhibition at 10 μM lower than 50)”. Also, at JAK2 kinase domain (JH1), the “JAK2 JH1% Inhibition @ 10 μM” value is reported as “A (percent inhibition at 10 μM lower than 50)”.

For `CNc1cc(Nc2cccn([C@@H]3CCN(C)C[C@@H]3F)c2=O)nc2c(C(=O)NC3CC3)cnn12` [I-688], the pKd in experiment [1] is > 9.70. Also, the inhibition at 10 µM on Tyk2 kinase domain (DH1) and on JAK2 kinase domain (JH1) was < 50% in each case.

For `CNc1cc(Nc2cccn(C3CCN(C)CC3)c2=O)nc2c(C(=O)N[C@H]3CC[C@H]3O)cnn12` [I-689], in experiment [1], the pKd is 9.00 to 9.70. Also, the inhibition at 10 µM at Tyk2 kinase domain (DH1) and at JAK2 kinase domain (JH1) was < 50% in each case.

Take `CNc1cc(Nc2cccn(C3CCN(C)CC3)c2=O)nc2c(C(=O)N[C@@H]3CC[C@@H]3O)cnn12` [I-690]: the pKd in experiment [1] is 8.00 to 9.00. At Tyk2 kinase domain (DH1), the “Tyk2 JH1% Inhibition @ 10 μM” value is “A (percent inhibition at 10 μM lower than 50)”. At JAK2 kinase domain (JH1), the “JAK2 JH1% Inhibition @ 10 μM” value is recorded as “A (percent inhibition at 10 μM lower than 50)”.

On to `CNc1cc(Nc2cccc([C@H]3CCCOC3)n2)nc2c(C(=O)N[C@@H]3COC[C@@H]3O)cnn12` [I-691], for which the negative logarithm of the Kd (pKd) in experiment [1] is 8.00 to 9.00. Also, the “Tyk2 JH1% Inhibition @ 10 μM” value on Tyk2 kinase domain (DH1) was “A (percent inhibition at 10 μM lower than 50)”. Moreover, the “JAK2 JH1% Inhibition @ 10 μM” value at JAK2 kinase domain (JH1) is “A (percent inhibition at 10 μM lower than 50)”.

Take `CNc1cc(Nc2cccc([C@H]3CCCOC3)n2)nc2c(C(=O)N[C@H]3COC[C@H]3O)cnn12` [I-692]: the pKd in experiment [1] is > 9.70. In addition, the inhibition at 10 µM at Tyk2 kinase domain (DH1) and on JAK2 kinase domain (JH1) was < 50% in each case.

Turning to `CNc1cc(Nc2cccc([C@H]3CCCOC3)n2)nc2c(C(=O)NC3COCC3O)cnn12` (stereo partly drawn) [I-695, N-(4-hydroytetrahydrofuran-3-yl)-7-(methylamino)-5-((6-((R)-tetrahydro-2H-pyran-3-yl)pyridin-2-yl)amino)pyrazolo[1,5-a]pyrimidine-3-carboxamide], in experiment [1], the pKd was > 9.70. In addition, the inhibition at 10 µM at Tyk2 kinase domain (DH1) and at JAK2 kinase domain (JH1) was < 50% throughout.

Regarding `CNc1cc(Nc2cccn([C@H]3CCCOC3)c2=O)nc2c(C(=O)N[C@@H]3CC[C@@H]3O)cnn12` [I-696], the pKd in experiment [1] is > 9.70. Besides, the inhibition at 10 µM on Tyk2 kinase domain (DH1) and at JAK2 kinase domain (JH1) was < 50% in each case.

For the compound `CNc1cc(Nc2cccn([C@H]3CCCOC3)c2=O)nc2c(C(=O)N[C@H]3CC[C@@H]3O)cnn12` [I-697], the pKd in experiment [1] was > 9.70. In addition, the inhibition at 10 µM on Tyk2 kinase domain (DH1) and on JAK2 kinase domain (JH1) was < 50% throughout.

With `CNc1cc(Nc2cccn([C@@H]3CCCOC3)c2=O)nc2c(C(=O)N[C@H]3CC[C@@H]3O)cnn12` [I-698], the negative-log Kd (pKd) in experiment [1] is > 9.70. Moreover, the inhibition at 10 µM on Tyk2 kinase domain (DH1) and at JAK2 kinase domain (JH1) was < 50% in each case.

Regarding `CNc1cc(Nc2cccn([C@H]3CCCOC3)c2=O)nc2c(C(=O)NCC3(CO)CC3)cnn12` [I-699], in experiment [1], the pKd was > 9.70. Besides, the inhibition at 10 µM at Tyk2 kinase domain (DH1) and on JAK2 kinase domain (JH1) was < 50% in each case.

For the compound `CNc1cc(Nc2cccn([C@@H]3CCCOC3)c2=O)nc2c(C(=O)NCC3(CO)CC3)cnn12` [I-700], the pKd in experiment [1] was 9.00 to 9.70. Further, the inhibition at 10 µM on Tyk2 kinase domain (DH1) and at JAK2 kinase domain (JH1) was < 50% each time.

As to `CNc1cc(Nc2cccn([C@@H]3CCCOC3)c2=O)nc2c(C(=O)N[C@H]3CCC[C@H](O)C3)cnn12` [I-703], the pKd in experiment [1] was > 9.70. Besides, the inhibition at 10 µM on Tyk2 kinase domain (DH1) and on JAK2 kinase domain (JH1) was < 50% in each case.

Consider `CNc1cc(Nc2cccn(-c3ccccn3)c2=O)nc2c(C(=O)N[C@H]3CC[C@@H]3O)cnn12` [I-705], for which the pKd in experiment [1] was > 9.70. Besides, the inhibition at 10 µM at Tyk2 kinase domain (DH1) and on JAK2 kinase domain (JH1) was < 50% in each case.

In the case of `CNc1cc(Nc2cccn(-c3nc(C)co3)c2=O)nc2c(C(=O)N[C@H]3CC[C@H]3O)cnn12` [I-707], the pKd in experiment [1] is > 9.70. For the same compound, the inhibition at 10 µM on Tyk2 kinase domain (DH1) and at JAK2 kinase domain (JH1) was < 50% in each case.

Turning to `CNc1cc(Nc2cccc(N3CCC34COC4)n2)nc2c(C(=O)NC3CC3)cnn12` [I-708], in experiment [1], the pKd is > 9.70. The inhibition at 10 µM at Tyk2 kinase domain (DH1) and at JAK2 kinase domain (JH1) was < 50% each time.

Consider `CNc1cc(Nc2cc(Cl)cn(C3CCOCC3)c2=O)nc2c(C(=O)N[C@@H]3CC[C@@H]3O)cnn12` [I-713], for which, in experiment [1], the pKd is > 9.70. Further, the inhibition at 10 µM on Tyk2 kinase domain (DH1) and on JAK2 kinase domain (JH1) was < 50% each time.

On to `CNc1cc(Nc2cccn(-c3cnco3)c2=O)nc2c(C(=O)NC3CC3)cnn12` [I-714], for which, in experiment [1], the pKd was > 9.70. Moreover, the inhibition at 10 µM at Tyk2 kinase domain (DH1) and on JAK2 kinase domain (JH1) was < 50% each time.

In the case of `CNc1cc(Nc2cccn(-c3cnc(C)o3)c2=O)nc2c(C(=O)NC3CC3)cnn12` [I-717], the pKd in experiment [1] is > 9.70. Also, the inhibition at 10 µM at Tyk2 kinase domain (DH1) and at JAK2 kinase domain (JH1) was < 50% each time.

Take `CNc1cc(Nc2cccn(-c3cnn(C)c3F)c2=O)nc2c(C(=O)N[C@H]3C[C@H]3F)cnn12` [I-719]: the pKd in experiment [1] is > 9.70. Besides, the inhibition at 10 µM on Tyk2 kinase domain (DH1) and at JAK2 kinase domain (JH1) was < 50% in each case.

Consider `CNc1cc(Nc2cccc(N3CCC4(CCCO4)CC3)n2)nc2c(C(=O)N[C@@H]3CC[C@@H]3O)cnn12` [I-720], for which the pKd in experiment [1] is 8.00 to 9.00. Besides, the “Tyk2 JH1% Inhibition @ 10 μM” value at Tyk2 kinase domain (DH1) was “A (percent inhibition at 10 μM lower than 50)”. At JAK2 kinase domain (JH1), the “JAK2 JH1% Inhibition @ 10 μM” value was “A (percent inhibition at 10 μM lower than 50)”.

Consider `CNc1cc(Nc2cccc(N3CCC4(CCCO4)CC3)n2)nc2c(C(=O)N[C@H]3CC[C@H]3O)cnn12` [I-721], for which the negative-log Kd (pKd) in experiment [1] is > 9.70. Moreover, the inhibition at 10 µM on Tyk2 kinase domain (DH1) and on JAK2 kinase domain (JH1) was < 50% throughout.
